From publication PMC11897194 (Nature Communications, 2025)

Target: T1, EfAvs5 (Kosakonia oryzae, UniProt A0AA94GZI5)
T1 sequence (A0AA94GZI5 1-849): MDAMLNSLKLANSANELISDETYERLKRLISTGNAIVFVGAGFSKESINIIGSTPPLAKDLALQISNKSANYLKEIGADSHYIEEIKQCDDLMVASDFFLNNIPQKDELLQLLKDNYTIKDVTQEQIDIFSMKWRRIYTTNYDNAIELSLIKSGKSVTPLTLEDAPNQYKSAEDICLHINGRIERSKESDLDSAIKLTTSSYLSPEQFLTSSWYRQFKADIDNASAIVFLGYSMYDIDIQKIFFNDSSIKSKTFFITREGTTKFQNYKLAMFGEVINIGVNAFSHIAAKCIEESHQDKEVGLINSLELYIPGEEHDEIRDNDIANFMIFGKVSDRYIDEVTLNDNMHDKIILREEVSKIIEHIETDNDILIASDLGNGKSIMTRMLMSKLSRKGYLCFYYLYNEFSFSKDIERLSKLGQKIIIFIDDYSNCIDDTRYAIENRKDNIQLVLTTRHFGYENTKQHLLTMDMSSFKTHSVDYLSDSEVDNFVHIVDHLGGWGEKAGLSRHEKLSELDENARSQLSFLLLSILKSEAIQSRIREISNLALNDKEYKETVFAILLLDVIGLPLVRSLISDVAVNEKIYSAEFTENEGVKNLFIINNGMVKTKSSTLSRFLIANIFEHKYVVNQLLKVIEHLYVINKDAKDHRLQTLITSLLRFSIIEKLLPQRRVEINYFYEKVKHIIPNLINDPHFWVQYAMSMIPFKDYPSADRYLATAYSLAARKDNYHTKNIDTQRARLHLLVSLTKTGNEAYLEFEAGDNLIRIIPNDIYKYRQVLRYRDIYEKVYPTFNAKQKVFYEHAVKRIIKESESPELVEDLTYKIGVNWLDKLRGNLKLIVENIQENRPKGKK
Experiment: biochemical

- Ki: 1740 ± 98 µM
SMILES: Nc1ncnc2c1ncn2[C@@H]1O[C@H](COP(=O)(O)OP(=O)(O)OP(=O)(O)O)[C@@H](O)[C@H]1O [ATP]
